The test system of data set [1] is endothelial nitric oxide synthase (eNOS)-dependent nitric oxide (NO) production. Put plainly: Example 3: endothelial NO production in ex vivo aorta by EPR. As to conditions: 0.05 mg/kg b.w./day, vs untreated age-matched mice. An excerpt:
For measurements of endothelial nitric oxide synthase (eNOS)-dependent nitric oxide (NO) production, EPR spin-trapping with diethyldithiocarbamic acid sodium salt (DETC) was used ex vivo, as described in Przyborowski K, Proniewski B, Czarny J, Smeda M, Sitek B, Zakrzewska A, et al. Vascular Nitric Oxide-Superoxide Balance and Thrombus Formation after Acute Exercise. Med Sci Sport Exerc 2018:1. doi:10.1249/MSS.0000000000001589, with minor modifications. Isolated aorta cleared from surrounding tissue was opened longitudinally and preincubated with 10 μM L-NIL (N6-(1-Iminoethyl)-lysine, hydrochloride) in Krebs-HEPES buffer for 30 minutes at 37° C. in a well of a 48-well plate. Next, 250 μL of Fe(DETC)2 colloid was added and aorta was stimulated with calcium ionophore A23187 (the final concentration was 1 μM) and subsequently, incubated for 90 minutes at 37° C. Finally, aorta was weighed and frozen in liquid nitrogen (suspended in fresh buffer) into the middle of a 400 μL column of Krebs-Hepes buffer and stored at −80° C. until measured. EPR spectra were obtained using an X-band EPR spectrometer (EMX Plus, Bruker, Germany), equipped with a rectangular resonator cavity H102. Signals were quantified by measuring the total amplitude of the NO—Fe(DETC)2 after correction of baseline. The quantitative results of NO production assessed by EPR were expressed in AU/mg of tissue.

For data set [2], the system named is ApoE/LDLR−/− mice. The data set is described as follows: Example 2: nitrite and nitrate concentration in plasma (ENO-20). As to conditions: two months. The class given is in vivo. The protocol: Nitrite (NO2−) and nitrate (NO3−) concentration in plasma—HPLC-based ENO-20
Blood samples were collected from heart into test tubes containing additional anticoagulant and centrifuged at 1000 g for 10 min at 4° C. The samples were used for HPLC measurement of nitrate (NO3^−) and nitrite (NO2^−) concentrations in plasma by an ENO-20 NOx Analyzer.

The test system of data set [3] is ApoE/LDLR−/− mice. The data set is described as follows: Example 3 first part: MRI assessment of endothelium-dependent vasodilatation (FMD in FA, Ach in AA), young mice. The class given is in vivo. The protocol: Mice were randomly assigned to one of four experimental groups: control (untreated group) and three groups treated with vitamin K2 at a dose of 0.05, 0.5, and 5 mg/kg b.w./day, respectively. End-point measurements were performed at the age of 10-16 weeks.
Magnetic resonance imaging (MRI) experiments were performed using a 9.4T scanner (BioSpec 94/20 USR, Bruker, Germany) located in the Department of Magnetic Resonance Imaging, Institute of Nuclear Physics, Polish Academy of Sciences in Krakow. During the experiment, mice were anaesthetized using isoflurane (Aerrane, Baxter Sp. z o. o., Poland, 1.7 vol %) in an oxygen and air (1:2) mixture and imaged in the supine position. Activity of the heart, respiration, and body temperature (maintained at 37° C. using circulating warm water) were monitored using a Monitoring and Gating System (SA Inc., Stony Brook, N.Y., USA).
Endothelial function was assessed based on vascular responses to acetylcholine (Ach) administration in brachiocephalic artery (BCA), left common carotid artery (LCA) (FIGS. 6 A and B) and abdominal aorta (AA) (FIG. 6C) as well as to responses to increase in flow (flow-mediated dilatation, FMD) in femoral artery (FA) (FIG. 6D) as described in Bar A, Skorka T, Jasinski K, Sternak M, Bartel Z, Tyrankiewicz U, et al. Retrospectively-gated MRI for in vivo assessment of endothelium-dependent vasodilatation and endothelial permeability in murine models of endothelial dysfunction. NMR Biomed 2016; 29(8):1088.; Sternak M, Bar A, Adamski M G, Mohaissen T, Marczyk B, Kieronska A, et al. The Deletion of Endothelial Sodium Channel α (αENaC) Impairs Endothelium-Dependent Vasodilation and Endothelial Barrier Integrity in Endotoxemia in Vivo. Front Pharmacol 2018; 9:178. doi:10.3389/fphar.2018.00178.; and Bar A, Olkowicz M, Tyrankiewicz U, Kus E, Jasinski K, Smolenski R T, et al. Functional and Biochemical Endothelial Profiling In Vivo in a Murine Model of Endothelial Dysfunction; Comparison of Effects of 1-Methylnicotinamide and Angiotensin-converting Enzyme Inhibitor. Front Pharmacol 2017; 8:183. doi:10.3389/fphar.2017.00183.).
Vasomotor response was examined by comparing two time-resolved 3D images of the vessels prior to and 25 minutes after intraperitoneal Ach administration (Sigma-Aldrich, Poznan Poland: 50 μl, 16.6 mg/kg), as well as prior to and 5 minutes after vessel occlusion. Images were acquired using the cine IntraGate™ FLASH 3D sequence, reconstructed with the IntraGate 1.2.b.2 macro (Bruker). End-diastolic volumes of vessels were analyzed using ImageJ software 1.46r (NIH Bethesda, Md., USA) and scripts written in Matlab (MathWorks, Natick, Mass., USA). Imaging parameters included the following: repetition time (TR)—6.4 ms, echo time (TE)—1.4 ms, field of view (FOV)—30×30×5 mm3, matrix size—256×256×30, flip angle (FA)—30°, and number of accumulations (NA)—15, reconstructed to 7 cardiac frames. Total scan time was 10 minutes.

The conditions of data set [4]: mouse, in vivo.
The subject of data set [5] is ApoE/LDLR−/− mice. Put plainly: Example 3 second part: nitrite and nitrate concentration in plasma. As to conditions: eight weeks. The format is in vivo.
[6] abbreviates: 0.05 mg/kg b.w./day, eight weeks.
Where [7] appears, read: 0.05 mg/kg b.w./day, four weeks, 15-week-old mice.

One compound from patent US20200289434A1, “RAPIDLY IMPROVING ENDOTHELIAL FUNCTION, REDUCING ARTERIAL STIFFNESS AND REVERSING CALCIFICATION OF BLOOD VESSELS BY ADMINISTERING VITAMIN K” (KAYDENCE PHARMA AS, priority 2019, published 2020) can be followed below.

SMILES strings stand for the structures.

On to `CC(C)=CCC/C(C)=C/CC/C(C)=C/CC/C(C)=C/CC/C(C)=C/CC/C(C)=C/CC/C(C)=C/CC1=C(C)C(=O)c2ccccc2C1=O` [MK-7, menaquinone-7], for which the “nitric oxide production in ex vivo aorta by EPR” value in data set [1] was “increased”. For the same compound, the “concentration of NO3− in plasma” value in data set [2] (0.03 or 10 mg/kg b.w./day) and in data set [5] (0.03 or 10 mg/kg b.w./day) was “did not change significantly” throughout. The “increase in NO2− concentration in plasma” value is recorded as around 42% in data set [2] (high dose 10 mg/kg b.w./day), “about 58%” in data set [2] (low dose 0.03 mg/kg b.w./day), around 42% in data set [5] (high dose 10 mg/kg b.w./day) and “about 58%” in data set [5] (low dose 0.03 mg/kg b.w./day). For the same compound, the “Ach response in AA, volume change” value is −0.65% in data set [3] (setting [6]); −1.59% in data set [3] (setting [7]); 1.52% in data set [3] (0.5 mg/kg b.w./day, two weeks); 0.16% in data set [3] (5 mg/kg b.w./day, two weeks). The “FMD in FA, volume change” value in data set [3] (setting [6]) is 28.34%; in data set [3] (setting [7]), 33.26%; in data set [3] (0.5 mg/kg b.w./day, two weeks) it was 28.57%; in data set [3] (5 mg/kg b.w./day, two weeks), 26.55%. Moreover, the “endothelial function (FMD-FA and ACH-AA)” value in data set [3] (0.05 mg/kg b.w./day, two weeks) is “not sufficient to improve endothelial function”. For the same compound, in data set [3] (0.5 and 5 mg/kg b.w./day, four weeks), the “improvement in endothelial function compared with low dose for 4 weeks” value is “not superior”. Besides, the “lipid profile, liver enzymes concentration, blood cell count” value in data set [4] is “did not affect”.
